Assay [1] has as its system human breast cancer cell lines. Put plainly: Locomotion of human breast cancer cell lines (timelapse image analysis). The class given is cell-based. Particulars: R3 5 μg/ml; peptide I 2 μg/ml; P<0.001. Here is the method:
Cells were cultured as described above. For cell locomotion studies, aliquots of 10^5 cells were added to a 25 cm^2 tissue culture flask (Corning). After 24 hours of growth, cells were washed with calcium and magnesium free Hank's balanced salt solution (HBSS) (Gibco BRL), the defined serum-free media (DM), DMEM supplied with 4.0 μg/ml transferrin (Human, Gibco BRL), 0.5 U/ml Lente insulin (beef and pork, Connaught Novo Ltd., Willowdale, Ontario) and 20 mM Hepes, PH 7.2, was added to the flasks. Twelve hours later, cell locomotion was recorded by using a computerized timelapse image analysis system (Image-1, Universal Image Corporation, Westchester, Pa.) which quantitates nuclear displacement Antibody—R3 (5 μg/ml), peptide I (2 μg/ml), control rabbit IgG (5 μg/ml) or scrambled peptide I (2 μg/ml) were added to media 20 min before the beginning of filming. Images were taken with a Zeiss inverted microscope (model IM35, Zeiss) using a 10× objective every 30 min for 3 hours. A minimum of 30 cells were tracked in each above experimental condition; experiments done in triplicate.

The test system of assay [2] is macrophage cell line S1. Put plainly: Macrophage chemotaxis to endotoxin-activated mouse serum, S1. In kind it is cell-based. As for the experimental part: (§1) The macrophage cell lines S1 and WEHI-3 (Branch et al., 1989) were used to analyze the effect of antibodies and synthetic peptide on macrophage chemotaxis to endotoxin-activated mouse serum (AS). These cells lines were also maintained in DME with 10% FCS and 20 mM Hepes buffer, pH 7.2 at 37° C. and 5% CO2 in air.
(§2) Chemotaxis was stimulated using either bacterial endotoxin-activated mouse serum (AS), prepared according to Stevenson et al. (1981) for macrophages and macrophage cell lines, or 100 ng/ml interleukin-8 (IL-8) for neutrophils. Heat-inactivated serum (56° C. for 20 mintes) or medium served as negative controls respectively. The chemotactic assay used was a colorometric assay described in Shi et al., (1993). Briefly, a 96-well chemotaxis chamber with a lower recess large enough to hold a microtiter plate (Neuro Probe, stock#MBA96) and a 5 μm framed filter (Neuro Probe, stock#PFD5/A) were used. The microtiter plate was filled with chemoattractants and controls and placed in the recess of the chemotaxis chamber. […] The number of displaced cells was quantified by the addition of 3-(4.5-dimethylthiazol-2-yl)-2,5-[…] tetrazolium bromide (MTT) to a final concentration of 250 μg/ml that was incubated at 37° C. for 4 hours. […] The plate was analysed within 2 hours on a microtiter plate ELISA reader with a filter of 540 nm. […]

For assay [3], the system named is smooth muscle cells. Put plainly: Smooth muscle cell migration after wounding of monolayers. The class given is cell-based, bovine. The conditions noted are these: peptides 2 μg/ml. Here is the method: Smooth muscle cells were isolated from bovine aorta as described previously from rat aorta (Majack et al., 1984) and were maintained in Dulbecco's Modified Eagles medium (DME) supplemented with 10% fetal calf serum (FCS) and 20 mM HEPES buffer, pH 7.2 at 37° C. and 5% CO2 in air. All experiments were performed using defined medium [DME with 20 mM HEPES buffer, pH 7.2, 0.5 U/ml insulin (beef and pork zinc suspension, Novo Laboratories Ltd., Willowdale, Ontario) and 4 μg/ml transferrin (Sigma Chemical Co., St. Louis, Mo.)], and the culture medium was replaced 24 hours before filming. Wounding injury to confluent monolayers consisted of removal of half the monolayer using a cell lifter followed by the addition of fresh defined medium in the presence of either RHAMM peptide aa401-411 or the scrambled peptide of the same domain as described above.
The HA-binding region of RHAMM consists of two 10 amino acid domains located close to the carboxy terminus of the protein (Yang, 1993). A peptide mimicking Domain 1 (amino acids 401-411)—YKQKIKHVVKLK—and a scrambled peptide consisting of the same amino acids arranged in a random manner—YLKQKKVKKHIV—were synthesized. Both peptides were used at a final concentration of 2 μg/ml in locomotion assays.
Injured cell monolayers were monitored for motility using an IM 35 Zeiss inverted microscope to which a video camera (Hamamatsu CCD, Inc., Japan) was attached. The cells were maintained at 37° C. using a heated platform (TRZ 3700, Zeiss, Germany). Cell locomotion was followed by using image analysis (Image 1, Universal Imaging Corp., Westchester, Pa. This program allows quantification of nuclear displacement from a sequence of digitalized images. The motility of thirty cells in each experiment was followed for a period of 24 hours with mean velocities calculated every hour.

Assay [4] deals with macrophage cell line WEHI-3. Description: Macrophage chemotaxis to endotoxin-activated mouse serum, WEHI-3. In kind it is cell-based. Here is the method:
as §1, §2

Assay [5] deals with Human neutrophils. Put plainly: Neutrophil chemotaxis to IL-8 (modified Boyden chamber). The conditions noted are these: 100 ng/ml IL-8. In kind it is cell-based. As for the experimental part: Human neutrophils were obtained from peripheral blood samples of normal volunteers and mixed in ACD solution (0.085 M trisodium citrate, 0.065 M citric acid, 2% dextrose) to prevent clotting. Five percent dextran was added and the separated plasma and white blood cells were removed. The cells were washed twice in PBS, pH 7.2 and a Ficoll gradient was used to separate the lymphocytes. The isolated neutrophils were then washed and resuspended in PBS. Red cells were lysed by brief exposure to hypotonic PBS.
as §2, with “(1993).” for “(1993). Briefly, a 96-well chemotaxis chamber with a lower recess large enough to hold a microtiter plate (Neuro Probe, stock#MBA96) and a 5 μm framed filter (Neuro Probe, stock#PFD5/A) were used. The microtiter plate was filled with chemoattractants and controls and placed in the recess of the chemotaxis chamber.”

The test system of assay [6] is C3 fibroblasts. Description: Cell locomotion assay, timelapse image analysis of C3 fibroblasts. Particulars: 70% confluent C3, 2 h. The class given is cell-based, murine. As for the experimental part:
For motility experiments, 10^5 cells were subcultured into 25 cm^2 tissue culture flasks (Corning), and maintained for 12 h as above. The medium was then aspirated, cells were rinsed with Hanks Balanced Salt Solution (HBSS) (Gibco) and fresh, serum-free α-MEM containing 4.0 μg/ml transferrin (Gibco) and 2.0 μg/ml insulin (Sigma) (defined medium) was added to the flasks.
Cell locomotion was recorded using a computerized timelapse analysis system (Image 1, Universal Imaging Corporation, Westchester, Pa.) that measures nuclear displacement. During the filming period, cells were maintained at 37° C. in defined-media at physiological pH.
A 10 amino acid peptide corresponding to one of the HA binding domains of RHAMM, peptide^aa423-432 (Yang et al., 1993), was synthesised and added at various concentrations (0,0.1, 1.0, 5.0, 10.0 and 50.0 ng/ml) to 70% confluent C3 fibroblasts. Cell locomotion was monitored by image analysis for 2 h from the addition of the peptide. A scrambled peptide was used as control.
RHAMM-GST fusion protein prepared and purified as described in (b) above was added at concentrations of 1 pg/ml, 1 ng/ml, 1 μg/ml and 1 mg/ml to 70% confluent C3 cultures and cell locomotion was monitored by image analysis for 2 h from protein addition as described in Example 5.
For each experiment, 30 cells were tracked every 10 min for a 1 hr period.
RHAMM-GST fusion protein, as described in (d) above, and deleted/mutated RHAMM-GST fusion protein, as described in (h) above were added at 5 ng/ml to subconfluent cultures of C3 cells and cell locomotion was monitored by image analysis for 2 h from protein addition as described in Example 5.

Assay [7] deals with C3 fibroblasts. Put plainly: Focal adhesion formation (vinculin immunofluorescence) and cell spreading of C3 fibroblasts. The class given is cell-based, murine. The conditions noted are these: for cells with focal adhesion staining (vinculin plaque-positive cells): 100 ng/mL. As for the experimental part: The ras-transformed 10T½ cells termed C3 (Egan et al., 1987) were grown on fibronectin coated glass coverslips for 24 hrs. The cells were then exposed to RHAMM I-2a (1 ng/ml to 1 mg/ml) for 2 hrs at 37° C. before fixing with 3% paraformaldehyde/phosphate buffered saline (PBS). Cells were then washed three times with 10% fetal calf serum PBs, permeabilized with 0.2% triton X-100/PBS for 3 min, and washed again. The coverslips were then incubated with anti-vinculin (Sigma, 1:75 dilution) or an identical concentration of nonspecific mouse IgG for 1 hr at 37° C. After washing, the coverslips were incubated with rhodamine labelled goat anti-mouse antibody (1:200, Sigma) for 2 hrs at room temperature. After further washings, the coverslips were mounted on glass slides and viewed on a Zeiss Axiovert 35 M fluorescent microscope.

Consider four molecules from patent publication US6429291B1, “Hyaluronan receptor protein” (priority 1994, dated 2002).

Entries after “also recorded” stand apart in the source; their conditions may differ.

In the case of YKQKIKHVVKLK [peptide aa^401-411], in assay [1], the “effect on locomotion of all cell lines” value is listed as “reduced significantly”. For the same molecule, the “effect on chemotaxis to endotoxin-activated mouse serum” value in assay [2] and in assay [4] was “inhibited” in each case. For the same molecule, the “effect on rate of translocation of smooth muscle cells after wounding” value is listed as “significantly reduced the rate of translocation” in assay [3] and “significantly inhibited the rate of translocation” in assay [3] (listed as Peptide aa^401-411). The “effect on neutrophil chemotaxis to IL-8” value in assay [5] is “completely inhibited; also recorded: significantly inhibited”.
Turning to “YLKQKKVKKHIV [scrambled peptide, same amino acids as peptide aa401-411 arranged in a random manner, reference compound]”, in assay [3], the “effect on rate of translocation of smooth muscle cells after wounding” value is “no effect on the wounding response”.
As to “peptide^aa423-432: 10 amino acid peptide corresponding to one of the HA binding domains of RHAMM (KEVELEKHIA; UniProt Q00547 423-432, looked up, fragment)”, in assay [6], the “concentration at which cell locomotion was significantly inhibited” value is not below 5 ng/mL.

B1: RHAMM I-2a-GST fusion protein: GST fusion protein of the secreted RHAMM isoform I-2a (with alternatively spliced exon 2A) (protein)
chain: MRALSLELMKLRNKRETKMRSMMVKQEGMELKLQATQKDLTESKGKIVQLEGKLVSIEKEKIDEKCETEKLLEYIQEISCASDQVEKCKVDIAQLEEDLKEKDREILSLKQSLEENITFSKQIEDLTVKCQLLETERDNLVSKDRERAETLSAEMQILTERLALERQEYEKLQQKELQSQSLLQQEKELSARLQQQLCSFQEEMTSEKNVFKEELKLALAELDAVQQKEEQSERLVKQLEEERKSTAEQLTRLDNLLREKEVELEKHIAAHAQAILIAQEKYNDTAQSLRDVTAQLESVQEKYNDTAQSLRDVTAQLESEQEKYNDTAQSLRDVTAQLESEQEKYNDTAQSLRDVTAQLESVQEKYNDTAQSLRDVTAQLESYKSSTLKEIEDLKLENLTLQEKVAMAEKSVEDVQQQILTAESTNQEYARMVQDLQNRSTLKEEEIKEITSSFLEKITDLKNQLRQQDEDFRKQLEEKGKRTAEKENVMTELTMEINKWRLLYDELYEKTKPFQQQLDAFEAEKQALLNEHGATQEQLNKIRDSYAQLLGHQNLKQKIKHVVKLKDENSQLKSEVSKLRSQLVKRKQNELRLQGELDKALGIRHFDPSKAFCHASKENFTPLKEGNPNCC
For the molecule B1, in assay [7] (1 ng/mL, 2 hrs), the “cells being vinculin plaque positive” value was 75%. For the same molecule, the “cells with focal adhesion staining (vinculin plaque-positive cells)” value is less than 50% in assay [7] (2 hrs) and more than 50% in assay [7] (2 hrs, listed as RHAMM I-2a). For the same molecule, in assay [7] (1 mg/mL, 2 hrs), the vinculin plaque-positive cells was more than 50%. Further, the “effect on cell morphology” value in assay [7] (various concentrations for 2 hours, data not shown) is “stimulate cell spreading”.
